Some results are limits rather than exact numbers.

The record followed here is article PMC5078989, “Targeted inhibition of the COP9 signalosome for treatment of cancer” (Nature Communications, 2016).

A short description of data set [1]: Pharmacokinetics in mice (single i.v. and oral dose). The following applies: mouse, in vivo, mice (n=3), single i.v. 1 mg per kg and single oral 3 mg per kg dose; for clearance: read-out: Cl (clearance); for bioavailability: read-out: F (absolute bioavailability); for half-life: read-out: t1/2 (half-life).
In a further data set the target is T1, Human AMSHLP (Homo sapiens, UniProt Q96FJ0).
T1 construct: made in house; host or cells: E. coli
T1 sequence (Q96FJ0 1-436): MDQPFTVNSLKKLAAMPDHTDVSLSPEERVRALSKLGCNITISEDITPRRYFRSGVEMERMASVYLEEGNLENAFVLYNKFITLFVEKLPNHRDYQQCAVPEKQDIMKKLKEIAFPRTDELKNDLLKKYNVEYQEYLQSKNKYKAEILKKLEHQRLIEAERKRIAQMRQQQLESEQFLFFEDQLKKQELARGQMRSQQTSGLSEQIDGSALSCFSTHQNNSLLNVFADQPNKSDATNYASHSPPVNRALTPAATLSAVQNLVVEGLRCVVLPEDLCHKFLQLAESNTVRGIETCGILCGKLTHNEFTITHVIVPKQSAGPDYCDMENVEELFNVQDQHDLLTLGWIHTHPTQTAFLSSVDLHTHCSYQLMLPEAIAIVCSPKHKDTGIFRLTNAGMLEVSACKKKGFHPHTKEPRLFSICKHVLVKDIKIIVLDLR
Put plainly: Selectivity assay AMSHLP (ubiquitin-rhodamine110-glycine substrate). It is filed as biochemical. The following applies: JAMM domain protease. Here is the method:
(§1) All biochemical assays were performed at room temperature in 384-well plates in a total volume of 25.25 μl per well. Test compounds were dissolved in 90% (v/v) DMSO/water. For the assays, 250 nl of compound solution was added per well, followed by addition of 12.5 μl protease solution. After 70 min of pre-incubation at room temperature, the reactions were started by addition of 12.5 μl substrate solution and followed either by measuring fluorescence intensity (rhodamine 110-based substrates) or by fluorescence lifetime (PT14-based substrates). The effect of compound on enzymatic activity was obtained from the linear part of the progress curves and determined after 1 h (t=60 min). The final compound concentrations ranged from 100 μM to 1 nM.
Human AMSHLP. Enzyme was expressed in and purified from E. coli; substrate: ubiquitin-rhodamine110-glycine was purchased from emp Biotech GmbH (Berlin, Germany; product number AS 09/12-A4); enzyme concentration: 4 nM; substrate concentration: 200 nM; assay buffer: 100 mM Tris/HCl at pH 7.5, 10 mM CaCl2, 100 mM NaCl, 10 μM ZnCl2, 0.005% (v/v) BRIJ 35 and 5 mM dithioerythritol (DTE).

A further data set has as its target T2, CSN5 (Homo sapiens, UniProt Q92905).
T2 construct: made in house; host or cells: Sf21 insect cells, co-infection of separate baculoviruses
As to the kind of experiment: CSN5 activity assay (CSN deneddylation, fluorescence polarization). It is filed as biochemical. The following applies: JAMM domain protease; means±s.d. Here is the method:
Unlike the majority of proteases, it is not active as an individual subunit or as an isolated catalytic domain. […] For the identification of CSN inhibitors, we therefore conducted a high-throughput screening campaign using a biochemical assay with recombinant CSN and a fluorescence-labelled and NEDD8-modified CRL substrate[30][40] (PT22-NEDD8-SCF^Skp2; Supplementary Table 1).
The potency of CSN5 inhibitors was determined in a CSN activity assay using changes in fluorescence polarization as the readout. Reactions were carried out at room temperature in 384-well plates. […] The effect of compound on enzymatic activity was determined from the linear part of the progression curves by an end-point measurement of the fluorescence polarization at 590 nm after excitation at 540 nm using a PHERAstar plate reader (BMG LABTECH GmbH). IC50 values were calculated from the plot of percentage of inhibition versus inhibitor concentration using the non-linear regression analysis software Origin 7.5SR6 (OriginLab Corp.).

The target in a further data set is CYP3A4 (Homo sapiens, UniProt P08684). As to the kind of experiment: CYP3A4 inhibition. It is filed as in vitro ADME. The source says:
Table 2 CYP3A4 inhibition and key pharmacokinetic parameters in mice of CSN5 inhibitors. | column: CSN5i-2; CSN5i-3

For a further data set, the target named is T3, human MMP1 (Homo sapiens, UniProt P03956).
T3 construct: Human MMP1 (Uniprot P03956), amino acids 1–469; made in house; host or cells: stably transfected C127 cells
T3 sequence (P03956 20-469): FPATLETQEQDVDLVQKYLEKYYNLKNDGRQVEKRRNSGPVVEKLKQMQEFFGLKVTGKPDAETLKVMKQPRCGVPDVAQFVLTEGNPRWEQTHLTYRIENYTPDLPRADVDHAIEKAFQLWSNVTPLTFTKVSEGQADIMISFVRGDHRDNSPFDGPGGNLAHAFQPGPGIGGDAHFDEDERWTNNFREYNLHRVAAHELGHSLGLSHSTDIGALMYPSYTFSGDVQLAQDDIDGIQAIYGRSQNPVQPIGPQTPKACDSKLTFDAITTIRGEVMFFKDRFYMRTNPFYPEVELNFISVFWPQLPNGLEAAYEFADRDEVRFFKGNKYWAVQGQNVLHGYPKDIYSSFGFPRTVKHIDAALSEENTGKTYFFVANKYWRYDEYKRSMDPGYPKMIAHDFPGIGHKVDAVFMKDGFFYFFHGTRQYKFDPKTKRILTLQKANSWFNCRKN
Put plainly: Selectivity assay MMP1. It is filed as biochemical. As for the experimental part:
as §1
Matrix metalloproteinases. […]

CYP3A4, sequence (P08684 whole entry, species assumed): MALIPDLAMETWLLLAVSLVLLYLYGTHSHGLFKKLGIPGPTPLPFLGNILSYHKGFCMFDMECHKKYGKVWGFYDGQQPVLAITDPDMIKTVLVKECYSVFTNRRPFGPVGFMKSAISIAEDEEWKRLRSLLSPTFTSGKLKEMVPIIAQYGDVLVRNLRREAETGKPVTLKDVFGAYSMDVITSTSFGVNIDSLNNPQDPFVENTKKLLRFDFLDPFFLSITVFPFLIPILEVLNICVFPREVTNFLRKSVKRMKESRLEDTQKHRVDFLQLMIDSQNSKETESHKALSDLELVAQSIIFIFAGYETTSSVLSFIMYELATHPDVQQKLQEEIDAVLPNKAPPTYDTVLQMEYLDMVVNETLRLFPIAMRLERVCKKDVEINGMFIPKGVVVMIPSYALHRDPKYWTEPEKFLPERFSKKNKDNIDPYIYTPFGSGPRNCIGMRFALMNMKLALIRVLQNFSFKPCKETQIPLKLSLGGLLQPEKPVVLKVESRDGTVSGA

On to `COCc1ccccc1NCc1ccc([C@H]2[C@@H](O)CCCc3cncn32)c(-c2ccccc2Cl)c1` [CSN5i-2, (5S,6S)-5-(2′-chloro-5-(((2-(methoxymethyl)phenyl)amino)methyl)-[1,1′-biphenyl]-2-yl)-6,7,8,9-tetrahydro-5H-imidazo[1,5-a]azepin-6-ol], for which, in data set [1], the clearance is 82 ± 25 mL/min/kg, the bioavailability is less than 1% and the half-life is 0.6 ± 0.0167 h. At Human AMSHLP, this compound showed a 50% inhibitory concentration (IC50) greater than 100 µM. This compound also showed an IC50 at CSN5 of 0.002 ± 0.001 µM. In addition, the IC50 at CYP3A4 was less than 0.5 µM.

Take `COCc1ccccc1NCc1ccc([C@@H]2[C@H](O)CCCc3cncn32)c(-c2ccccc2Cl)c1` [CSN5i-2e, (5R,6R)-5-(2′-chloro-5-(((2-(methoxymethyl)phenyl)amino)methyl)-[1,1′-biphenyl]-2-yl)-6,7,8,9-tetrahydro-5H-imidazo[1,5-a]azepin-6-ol]: the values for the IC50 on Human AMSHLP and against CSN5 were greater than 100 µM and 2.1 ± 1.8 µM, respectively.

`CC(C)n1nc(C(F)F)cc1C(=O)Nc1ccc([C@H]2[C@@H](O)CCCc3cncn32)c(-c2ccccc2)c1` [CSN5i-3, 3-(Difluoromethyl)-N-(6-((5S,6S)-6-hydroxy-6,7,8,9-tetrahydro-5H-imidazo[1,5-a]azepin-5-yl)-[1,1′-biphenyl]-3-yl)-1-isopropyl-1H-pyrazole-5-carboxamide]: the clearance in data set [1] was found to be 36 ± 3 mL/min/kg. The bioavailability in data set [1] was determined as 33 ± 2%. Moreover, the half-life in data set [1] was 2.5 ± 0.3 h. Besides, the results for the IC50 at Human AMSHLP, against CYP3A4 and at human MMP1 were greater than 100 µM, 6.8 ± 1.8 µM and greater than 100 µM, respectively.
